Where only a bound is given, the exact number is not on record here.

For the compound `Cc1cccc2c1C(=O)N1CC[C@H]1C(=O)N2`, the melting point (as a rule, the temperature of the solid-liquid transition) was 159 to 160 °C.
In turn, `O=C(O)c1ccc(CNC(=O)[C@@H]2Cc3ccccc3N2S(=O)(=O)c2ccc(I)cc2)cc1` gave a melting point of 110 to 120 °C.
`COC(=O)c1ccc(Cl)cc1NC(=O)CSc1cccc(Br)c1` returned a melting point of 89 to 90 °C.
To `Cc1cc(OCC(=O)O)cc(C)c1SCc1sc(-c2ccc(C(F)(F)F)cc2)nc1C` belongs 184 to 185 °C; to `CN1C(=O)CNC2=C1C=NC(Cl)=CN2c1ccccc1`, 105 to 107 °C.
Then `COC(=O)C1CC(C(CC(O)C(CC2CCCCC2)NC(=O)C(Cc2c[nH]cn2)NC(=O)C(Cc2ccccc2)NC(=O)OC(C)(C)C)C(C)C)OC1=O` (centres undefined), with 95 °C; and `Nc1nc(N2CCC2)c2ncn(C3CC(F)C(CO)O3)c2n1` (centres undefined), with 127 to 129 °C.
To `CC1(C)CCC(C)(C)c2cc(NC(=O)c3ccc(OCCN4CCOCC4)cc3)ccc21` belongs 130 to 132 °C; to `CC(C)(C)c1ccc(OC2CCOC2)c(N)c1` (centres undefined), 79 to 82 °C.
In the case of `Cc1c2c(c3ccccc3c1O)OCC2c1ccc(C(C)C)cc1` (centres undefined), the melting point lay in the range of 94 to 96 °C.
On to `CC(=O)OCC1C(O)C2OC(C)(C)OC2C2NC(=O)c3cc4c(cc3C12)OCO4` (centres undefined), for which the melting point was over 200 °C.
Then `O=S(O)c1ccc2c(c1)CCCC2`, with 82 to 85 °C; and `CCc1cc2c(cc1Oc1ccc(C(=O)O)cc1C)C(C)(C)CCC2(C)C`, with 210 to 211 °C; and `COc1cc(-n2cccn2)ncn1`, with 108 to 109 °C.
Compound `CCc1cccc(C)c1CNc1cc(C(=O)N(C)C)cc2c1nc(CO)n2C` had a melting point of 138 to 141 °C.
Then `O=C1c2ccccc2C(=O)N1CCCc1cn(C(c2ccccc2)(c2ccccc2)c2ccccc2)cn1`, with 211 to 214 °C; and `O=C(C(=O)N1CCC(c2nnnn2-c2ccccc2)CC1)c1c[nH]c2c(-n3ccnn3)ncc(F)c12`, with 257 to 258 °C.
To `O=[N+]([O-])C=C1SCCN1Cc1ccccc1` belongs 136 to 138 °C; to `Cn1ccnc1Sc1c(Cl)cccc1Cl`, 113 to 115 °C; to `CCOCc1nc2c(N)nc3cc(O)ccc3c2n1CC(C)(C)NC(=O)NC(C)C`, 163 to 168 °C.
`Nc1cnc2cccnc2c1O` returned a melting point of 315 to 320 °C.
To `COC(=O)CNC(=O)c1cc(Cl)nc(Cl)c1` belongs 140 to 141 °C; to `COCCOC(=O)c1cc(NC(=O)OCc2ccccc2)ccc1OCCOC`, 104 to 105 °C; to `COc1ccc2nccc(NC(=O)N3CCN(CCc4ccc5c(c4)NC(=O)CS5)CC3)c2n1`, 248 to 250 °C.
`CC(CC(C(O)CC(C)(C)O)N(C)C)C1CCC2C(O)CCCC12C` (centres undefined) showed a melting point of 169 to 170 °C.
Then `O=Cc1ccc(O)c(OCc2ccccc2)c1Cl`, with 149 to 150 °C; and `COc1cccc(N(CCN2CCC(C(=O)c3ccc(F)cc3)CC2)C(=O)c2cccc(N)c2)c1`, with 141 to 142 °C; and `Clc1ccc2c(c1)oc1cc(OCCCBr)ccc12`, with 83 to 85 °C.
To `COc1ccc(C(=O)CCC(=O)N[C@@H](Cc2ccccc2)C(=O)O)cc1` belongs 131 to 133 °C; to `Cc1noc(NS(=O)(=O)c2sccc2Cc2ccccc2)c1Br`, 180 to 183 °C; to `CCOc1ccc(-c2nc(-c3cccc(N4CCCC4C(=O)O)n3)cs2)cc1OCC` (centres undefined), 170 to 171 °C.
Compound `CCN1CCC2(c3cccc(O)c3)CC(Cc3ccccc3)=CCC2C1` (centres undefined) returned a melting point of 160 to 162 °C.
To `COc1cc2c(c(F)c1CNC1CCCNC1c1ccccc1)N(C)C(=O)CC2(C)C` (centres undefined) belongs over 270 °C; to `CCCn1c(COC)nc2c(N)nc3ccc(OCCCOC(=O)N4CCOCC4)cc3c21`, 173 to 174 °C.
To `O=C(O)COc1c(-c2cccc(C(F)(F)F)c2)cc(C(=O)NCCCCCCOCc2ccc(OCc3ccccc3)cc2)cc1-c1cccc(C(F)(F)F)c1` belongs 127 to 130 °C; to `CN(C)C=Nc1nc(=O)n(S(=O)(=O)c2ccccc2)cc1F`, 203 to 204 °C.
`CC(=O)Nc1cccc(C(=O)c2[nH]c3cc(Cl)ccc3c2NC(C)=O)c1`: the melting point is 225 to 228 °C.
In the case of `CC(=O)Nc1cc(C)cc(Br)n1`, the melting point was 190 °C.
`Cc1c(Cl)c(C(=O)O)cc([N+](=O)[O-])c1Cl` registered a melting point of 152 to 154 °C.
To `COc1ccc(Br)c(C=C(C#N)C(=O)O)c1OC` belongs 130 to 132 °C; to `CC(=O)Nc1nc(CCc2ccc(N)cc2)c(C(=O)O)s1`, 212 °C.
Regarding `CCCCCCCCCCCCCCCCN(CC(O)CO)C(C)=O` (centres undefined), the melting point was in the range of 56 to 58 °C.
To `Nc1ccc(-c2nc3cc(OCc4ccccc4)ccc3s2)c(Cl)c1` belongs 119 to 121 °C; to `CCCCNc1cc(C(=O)O)cc(S(N)(=O)=O)c1Oc1ccc(S(N)(=O)=O)cc1`, 265 °C; to `CN1CC(CCN2CCN(c3cc(Cl)cc(Cl)c3)CC2)OC1=O` (centres undefined), 89 to 90 °C.
To `CCOc1ccc(C(=O)c2ccc(OC)c(Cl)c2Cl)c(F)c1` belongs 94 to 96 °C; to `Fc1ccc(C2CN(C(c3ccccc3)c3ccccc3)C2)cc1`, 65 to 66 °C; to `CC(=O)/C=C(\C)c1ccc(C2CCCCC2)c(Cl)c1`, 56.5 to 57.5 °C.
Then `CCc1cc(C#N)c(=O)[nH]c1COCc1ccccc1`, with 141 to 143 °C.
On to `CC(=O)Nc1ccccc1CN1CCC(CCC(=O)c2ccc(Nc3ncnc4c3CCC4)cc2)CC1`, for which the melting point was in the range of 219 to 222 °C.
Then `Cn1c(C2CC2)nc2c(O)c(C(=O)[C@H](O)[C@@H](O)c3ccccc3)ccc21`, with 156 °C.
Then `C[C@@H](OS(C)(=O)=O)C(=O)N1C(=O)N(C)C[C@H]1C(=O)OCc1ccccc1`, with 98 to 102 °C.
To `c1ccc(OCC2CCNCC2)cc1` belongs 42 to 43 °C; to `COc1ccc(C=CC(=O)c2cccc(OCCCCCBr)c2)cc1`, 83 to 84 °C.
Regarding `COc1cc(Nc2c(C#N)cnc3cc(/C=C/CCCCCCCCCN4CCOCC4)c(OC)cc23)c(Cl)cc1Cl`, the melting point lay in the range of 98 to 99 °C.
To `CCOC(=O)c1ccc(/C=C(\C)c2ccc3c(c2)C(C)(C)CC3(C)C)cc1` belongs 70 to 71 °C.
To `CC(C)(C)C(O)C(=Cn1ccnc1)Oc1ccc(F)cc1` (centres undefined) belongs 112 to 113 °C; to `Oc1ccc(-c2noc(C3(CSc4ccccc4)CC3)c2-c2ccccc2)cc1`, 180 to 181 °C.
In the case of `CCn1cc(C(=O)NCc2ccc(Cl)cc2)c(=O)c2cc(CCl)oc21`, the melting point was 192 to 193 °C.
Then `CCCCN(CCCCCN(CCCC)c1ccc(C=O)cc1)c1ccc(C=O)cc1`, with 51 to 52 °C.
Then `CNC(=O)C1SCSC(=NO)S1` (centres undefined), with 129 to 130 °C; and `CCON1CC1C(N)=O` (centres undefined), with 50 to 54 °C.
`N#CC(=NO)c1cccc(Br)c1` registered a melting point of 91 to 93 °C.
As to `COc1nc(-c2ccc(=O)n(C(C)C)n2)c(-c2ccccc2)nc1N`, the melting point is 211 to 214 °C.

The values are drawn from a melting point compilation (Tetko et al.; mined from patent text by program, amines drawn as free bases though some values may be those of a salt).
